Reference: patent US4734416A, “Pharmaceutically useful carbostyril derivatives” (Otsuka Pharmaceutical Co., Ltd., priority 1978, dated 1988)
Structures can show the parent of a compound that is named as a salt.

Assays:
[1] = Halothane anesthesia increasing activity (righting reflex); format: in vivo, mouse (male, ddy-strain); settings: oral; for Time (minutes) between introduction of anesthesia and waking: 8 mg/kg, 1 hour before 4% Halothane
Experimental: Male mice of ddy-strain having about 20 g body weight are used. One test group consists of 10 mice. An aqueous Gummi Arabicum suspension of test compound (80 mg of a compound to be tested and 1 g of Gummi Arabicum/100 ml of physiological NaCl solution) is administered orally to each mouse at the dosage of 8 mg of test compound/kg body. One hour after the administration, each mouse is placed in a gas respiration chamber (13×13×24 cm) and oxygen gas containing 4% of Halothane [2-bromo-2-chloro-1,1,1-trifluoroethane] is blown into the chamber at the velocity of 2 l/min for 3 minutes. A mouse anaesthetized is taken out from the chamber and the time between the introduction of anesthesia to waking is measured by righting reflex as the index. To mice of the control group, 1% Gummi Arabicum aqueous physiological solution is orally administered at the dosage of 0.1 ml/10 g body. [Reference: M. J. Turnbull and J. W. Watkins: Br. J. Pharmac., 58, 27-35 (1976)]
Same procedures as mentioned in (II)-(A) are employed, except that the amount of test compound to be orally administered is changed in 4 steps at the dosage of 0.5 mg/kg, 1 mg/kg, 2 mg/kg and 4 mg/kg respectively to measure the relationship between the dosage and degree of strength of anesthesia increasing activity.

[2] = target: T1, enucleated ileum of a guinea pig (Cavia porcellus, UniProt P31389); experiment: Antihistamine activity test in vitro (enucleated guinea pig ileum, histamine retraction, pA2 by Van Rossam method); settings: 10^-6 g/ml test compound, 5 minutes before histamine, 36° C.
T1 construct: the tissue of ileum is cut to a length of 2.5 to 3.0 cm and suspended in an organ bath; from tissue; host or cells: isolated ileum from the ileocecal region of male guinea pig
Experimental: As to the test method for determining antihistamine activity of a compound in vitro, a method of using an enucleated ileum of a guinea pig is generally accepted.
A male guinea pig having 300 to 500 g body weight is killed by blood letting. An ileum having a length of 15 cm being enculeated from the ileocecal region is dipped into Tyrode's solution (which is prepared from […], 0.2 g of KCl, 0.2 g of CaCl2, 1.0 g of glucose, 1.0 g of NaHCO3, 0.065 g of NaHPO4.2H2 O and 0.2135 g of MgCl2.6H2 O to make 1000 ml in total volume by adding water). Then the tissue of ileum is cut to a length of 2.5 to 3.0 cm and suspended in an organ bath filled with 30 ml of Tyrode's solution. The organ bath is kept at a temperature of 36° C. and a mixed gas consisting of 5% of CO2 and 95% of O2 is blown into the bath. 10 Minutes after the blowing, 10^-6 M of histamine is added to the bath to examine the sensitivity of the tissue and a reaction curve (control) with respect to the dosage of histamine is obtained. After the dosage of histamine-reaction curve (control) becomes constant, 10^-6 g/ml of a compound to be tested is added to the bath and further histamine is added 5 minutes later to obtain a dosage-reaction curve. Retraction of the ileum is recorded on a pen-recorder through an isotonic transducer [TD-112S manufactured by Nihon Koden]. Antihistamine activity of the test compound is determined as pA2 value by the "Van Rossam" method [J. M. Van Rossam; Arch. Inst. Pharmacodyn., 143, 299 (1963)] wherein the maximum retraction of ileum caused by histamine shown in the control curve is 100%.

T1 sequence (P31389 whole entry): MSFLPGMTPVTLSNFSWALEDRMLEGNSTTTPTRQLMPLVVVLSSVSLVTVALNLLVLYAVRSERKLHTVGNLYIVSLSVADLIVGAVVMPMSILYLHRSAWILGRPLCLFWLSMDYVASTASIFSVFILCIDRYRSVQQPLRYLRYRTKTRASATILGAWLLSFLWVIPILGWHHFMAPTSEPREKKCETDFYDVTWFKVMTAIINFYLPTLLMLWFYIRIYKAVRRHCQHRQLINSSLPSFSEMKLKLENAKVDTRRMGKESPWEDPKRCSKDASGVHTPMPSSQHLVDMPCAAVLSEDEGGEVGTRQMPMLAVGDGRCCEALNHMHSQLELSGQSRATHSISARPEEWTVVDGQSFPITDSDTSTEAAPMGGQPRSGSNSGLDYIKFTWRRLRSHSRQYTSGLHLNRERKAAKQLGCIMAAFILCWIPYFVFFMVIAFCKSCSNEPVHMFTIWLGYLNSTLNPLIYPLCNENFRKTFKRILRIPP

| SMILES | Time (minutes) between introduction of anesthesia and waking [1] [min] | Kb [2] [nM] | further results |
| --- | --- | --- | --- |
| CC(COc1ccc2c(c1)NC(=O)CC2)CN1CCN(c2ccccc2)CC1 (centres unmarked) [Compound 25, 7-[2-Methyl-3-(4-phenylpiperazinyl)propoxy]-3,4-dihydrocarbostyril] | 7.8 ± 3.3 | 0.617 | – |
| O=C1CCc2cccc(OCCCN3CCN(c4ccccc4)CC3)c2N1 [Compound 19, 8-[3-(4-Phenylpiperazinyl)propoxy]-3,4-dihydrocarbostyril] | 9.3 ± 3.5 | 10.2 | – |
| CC(C)N1C(=O)CCc2ccc(OCCCN3CCN(c4ccccc4)CC3)cc21 [Compound 23, 1-(2-Propyl)-7-[3-(4-phenylpiperazinyl)propoxy]-3,4-dihydrocarbostyril dihydrochloride] | 7.6 ± 4.2 | 0.589 | – |
| O=C1CCc2ccc(OCCCN3CCN(c4cccc(F)c4)CC3)cc2N1 [Compound 24, 7-{3-[4-(3-Fluorophenyl)piperazinyl]propoxy}-3,4-dihydrocarbostyril] | 11.6 ± 6.7 | 0.257 | – |
| O=C1CCc2ccc(OCC(O)CN3CCN(c4ccccc4)CC3)cc2N1 (centres unmarked) [Compound 2, 7-[2-Hydroxy-3-(4-phenylpiperazinyl)propoxy]-3,4-dihydrocarbostyril monohydrochloride] | 11.7 ± 5.6 | 17.8 | – |
| COc1cc(C(=O)OC(COc2cccc3c2CCC(=O)N3)CN2CCN(c3ccccc3)CC2)cc(OC)c1OC (centres unmarked) [Compound 21, 5-[2-(3,4,5-Trimethoxybenzoyloxy)-3-(4-phenylpiperazinyl)propoxy]-3,4-dihydrocarbostyril] | 8.1 ± 3.9 | 0.912 | – |
| O=C1CCc2c(c(Cl)cc(Cl)c2OCC(O)CN2CCN(c3ccccc3)CC2)N1 (centres unmarked) [Compound 4, 6,8-Dichloro-5-[2-hydroxy-3-(4-phenylpiperazinyl)propoxy]-3,4-dihydrocarbostyril monohydrochloride] | 7.4 ± 2.7 | 1.12 | – |
| COc1ccccc1N1CCN(CCCOc2ccc3ccc(=O)[nH]c3c2)CC1 [Compound 22, 7-{3-[4-(2-Methoxyphenyl)piperazinyl]propoxy}-carbostyril dihydrochloride] | 10.4 ± 4.1 | 11.7 | – |
| CC(=O)OCCN1CCN(CCCOc2ccc3c(c2)NC(=O)CC3)CC1 [Compound 32, 7-{3-[4-(2-Acetyloxyethyl)piperazinyl]propoxy}-3,4-dihydrocarbostyril] | 7.9 ± 3.1 | 30.2 | – |
| O=C1CCc2ccc(OCCCN3CCN(Cc4ccccc4)CC3)cc2N1 [Compound 14, 7-[3-(4-Benzylpiperazinyl)propoxy]-3,4-dihydrocarbostyril] | 7.5 ± 4.3 | 0.794 | – |
| O=C1CCc2ccc(OCCCN3CCN(c4ccc(Cl)cc4)CC3)cc2N1 [Compound 16, 7-{3-[4-(4-Chlorophenyl)piperazinyl]propoxy}-3,4-dihydrocarbostyril] | 11.4 ± 5.6 | 0.234 | – |
| O=c1ccc2cc(OCCCN3CCN(c4ccccc4)CC3)ccc2[nH]1 [Compound 36, 6-[3-(4-Phenylpiperazinyl)propoxy]carbostyril] | 15.3 ± 3.1 | 10.2 | – |
| O=C1CCc2ccc(OCCCN3CCN(c4ccccc4)CC3)cc2N1Cc1ccccc1 [Compound 12, 1-Benzyl-7-[3-(4-phenylpiperazinyl)propoxy]-3,4-dihydrocarbostyril] | 7.5 ± 3.5 | 6.17 | – |
| O=C1CCc2c(cccc2OCC(O)CN2CCN(c3ccccc3)CC2)N1 (centres unmarked) [Compound 1, 5-[2-Hydroxy-3-(4-phenylpiperazinyl)propoxy]-3,4-dihydrocarbostyril monohydrochloride] | 9.3 ± 4.9 | 8.32 | – |
| O=C1CCc2ccc(OCCCN3CCN(C(=O)c4ccccc4)CC3)cc2N1 [Compound 35, 7-[3-(4-Benzoylpiperazinyl)propoxy]-3,4-dihydrocarbostyril] | 8.2 ± 3.7 | 2.63 | – |
| CCCC(C)C1(CC)C(=O)NC(=O)NC1=O (centres unmarked) [Pentobarbital, reference compound] | – | – | Anesthesia increasing activity ([1]; 0.5 mg/kg): 5.3 ± 2.6 min; Anesthesia increasing activity ([1]; 1 mg/kg): 4.9 ± 3.5 min; Anesthesia increasing activity ([1]; 2 mg/kg): 6.3 ± 2.3 min; Anesthesia increasing activity ([1]; 4 mg/kg): 8.1 ± 3.1 min |
| CCCCCCN1C(=O)CCc2ccc(OCCCN3CCN(c4ccccc4)CC3)cc21 [Compound 38, 1-Hexyl-7-[3-(4-phenylpiperazinyl)propoxy)]-3,4-dihydrocarbostyril dihydrochloride] | – | 1.17 | – |
| O=C1CCc2c(OCC(O)CN3CCN(c4ccccc4)CC3)cccc2N1Cc1ccccc1 (centres unmarked) [Compound 8, 1-Benzyl-5-[2-hydroxy-3-(4-phenylpiperazinyl)propoxy]-3,4-dihydrocarbostyril monohydrochloride] | 7.5 ± 3.3 | 0.0158 | – |
| Cc1cc(=O)[nH]c2cc(OCCCN3CCN(c4ccccc4)CC3)ccc12 [Compound 13, 4-Methyl-7-[3-(4-phenylpiperazinyl)propoxy]carbostyril] | 8.1 ± 2.7 | 0.407 | – |
| CC(=O)N1CCN(CCCOc2ccc3c(c2)NC(=O)CC3)CC1 [Compound 34, 7-[3-(4-Acetylpiperazinyl)propoxy]-3,4-dihydrocarbostyril] | 7.8 ± 3.4 | 57.5 | – |
| CC1CN(CCCOc2ccc3c(c2)NC(=O)CC3)CCN1c1ccc(Cl)cc1 (centres unmarked) [Compound 18, 7-{3-[3-Methyl-4-(4-chlorophenyl)piperazinyl]propoxy}-3,4-dihydrocarbostyril dihydrochloride] | 8.4 ± 2.5 | 2.19 | – |
| Cc1ccc(N2CCN(CCCCOc3cccc4c3CCC(=O)N4)CC2)cc1 [Compound 10, 5-{4-[4-(4-Methylphenyl)piperazinyl]butoxy}-3,4-dihydrocarbostyril] | 7.9 ± 3.7 | 1.26 | – |
| CC(=O)OC(COc1cccc2c1CCC(=O)N2)CN1CCN(c2ccccc2)CC1 (centres unmarked) [Compound 20, 5-[2-Acetyloxy-3-(4-phenylpiperazinyl)propoxy]-3,4-dihydrocarbostyril] | 9.8 ± 3.7 | 1.23 | – |
| O=C1CCc2cc(Cl)c(OCCCN3CCN(c4ccccc4)CC3)c(Br)c2N1 [Compound 28, 6-Chloro-8-bromo-7-[3-(4-phenylpiperazinyl)propoxy]-3,4-dihydrocarbostyril dihydrochloride] | 10.2 ± 5.8 | 0.229 | – |
| O=C1CCc2c(cccc2OCCCN2CCN(C3CCCCC3)CC2)N1 [Compound 30, 5-[3-(4-Cyclohexylpiperazinyl)propoxy]-3,4-dihydrocarbostyril] | 7.9 ± 3.7 | 44.7 | – |
| O=c1cc(-c2ccccc2)c2ccc(OCCCN3CCN(c4ccccc4)CC3)cc2[nH]1 [Compound 27, 4-Phenyl-7-[3-(4-phenylpiperazinyl)propoxy]carbostyril] | 7.8 ± 3.2 | 0.977 | – |
